A short description of data set [1]: Partition coefficient (logP). Format: physicochemical. Conditions: octanol/water.
The species entered for a further data set is Homo sapiens. The experiment in a line: Human hallucinogenic activity relative to mescaline. Format: functional.
The nature of data set [2]: Equilibrium constant for DNB complex formation. On the set-up: unit not given here.
Data set [3] addresses 5-hydroxytryptamine receptor 2B (Rattus norvegicus, UniProt P30994). The experiment in a line: Affinity against 5-hydroxytryptamine 2B receptor in the isolated rat stomach fundus. Particulars: read-out: pA2 (converted). Format: tissue-based.
Another data set is filed under the species Oryctolagus cuniculus. The experiment in a line: Hyperthermic potency in rabbit relative to DOM. Format: functional.

The term logP denotes a log measure of how a compound divides between an organic and an aqueous phase.

5-hydroxytryptamine receptor 2B, sequence (P30994 whole entry): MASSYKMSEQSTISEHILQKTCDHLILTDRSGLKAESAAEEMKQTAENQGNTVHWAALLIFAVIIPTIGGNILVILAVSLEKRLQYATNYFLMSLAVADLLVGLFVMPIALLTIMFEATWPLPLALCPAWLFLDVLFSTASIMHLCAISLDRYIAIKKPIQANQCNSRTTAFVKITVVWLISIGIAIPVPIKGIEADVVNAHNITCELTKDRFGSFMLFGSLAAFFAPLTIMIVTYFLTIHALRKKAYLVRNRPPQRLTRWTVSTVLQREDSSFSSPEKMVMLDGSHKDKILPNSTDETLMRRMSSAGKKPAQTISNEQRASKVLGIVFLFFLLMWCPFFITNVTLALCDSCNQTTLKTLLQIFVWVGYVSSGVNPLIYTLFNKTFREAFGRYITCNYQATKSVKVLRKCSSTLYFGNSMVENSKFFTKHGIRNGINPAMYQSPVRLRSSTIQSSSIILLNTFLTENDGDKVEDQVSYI

For the compound `COc1ccc(CC(C)N)cc1` (stereo not drawn) [PARA-METHOXYAMPHETAMINE], in data set [1] (read-out: logP), the logP stood at 1.77. Besides, the Relative activity in the data set listed under Homo sapiens was found to be 4. Also, the KDNB in data set [2] came out at 1.02. Besides, in data set [3], the Kb was 6920 nM.

For `COc1cc(CC(C)N)c(OC)cc1C` (stereo not drawn) [DOM], the logP in data set [1] worked out at 2.24; in data set [1] (read-out: logP) it was 2.08. The Relative activity in the data set listed under Homo sapiens is listed as 80; in the data set listed under Oryctolagus cuniculus, 100. Further, the Kb in data set [3] was 75.9 nM.

With `COc1cc(OC)c(OC)cc1CC(C)N` (stereo not drawn), the logP in data set [1] turned out to be 1.1; in data set [1] (read-out: logP), 1.74. The figures for the Relative activity in the data set listed under Homo sapiens and in the data set listed under Oryctolagus cuniculus were 17 and 11.8, respectively. The KDNB in data set [2] came to 1.7. Moreover, the Kb in data set [3] was 155 nM.

As to `COc1cc(OC)c(CC(C)N)cc1C` (stereo not drawn), the logP in data set [1] (read-out: logP) was determined as 2.31. Further, the Relative activity in the data set filed under Oryctolagus cuniculus came out at 0.9. Besides, the Kb in data set [3] was 2450 nM.

Turning to `CC(N)Cc1ccccc1` (stereo not drawn), the KDNB in data set [2] was 0.55.

Take `COc1cc(OC)c(SC)cc1CC(C)N` (stereo not drawn): the lipophilicity (logP) in data set [1] (read-out: logP) was 2.22. For the same compound, the Relative activity was 1 in the data set listed under Homo sapiens and 2.8 in the data set listed under Oryctolagus cuniculus. Moreover, in data set [3], the Kb is 1700 nM.

With `COc1ccc(CC(C)N)c(OC)c1` (stereo not drawn), the logP in data set [1] (read-out: logP) stood at 1.75. In addition, the Relative activity in the data set filed under Homo sapiens is 5; in the data set listed under Oryctolagus cuniculus, 2.5. In data set [2], this compound gave a KDNB of 1.32. In addition, in data set [3], the Kb was 2510 nM.

`COc1ccc(CC(C)N)cc1OC` (stereo not drawn): the figures for the lipophilicity (logP) in data set [1] and in data set [1] (read-out: logP) were 1.2 and 1, respectively. Also, the values for the Relative activity in the data set listed under Homo sapiens and in the data set listed under Oryctolagus cuniculus were less than 1 and <<0.3, respectively. This compound had a KDNB in data set [2] of 1.95. For the same compound, the Kb in data set [3] is 3550 nM.

Take `COc1cc(CC(C)N)cc(OC)c1OC` (stereo not drawn): the logP in data set [1] (read-out: logP) was 1.48. Moreover, the Relative activity in the data set filed under Homo sapiens came out at 2.2; in the data set filed under Oryctolagus cuniculus, 3.6. The same compound came in with a KDNB in data set [2] of 3.14. For the same compound, in data set [3], the Kb was 2510 nM.

For the compound `COc1cccc(CC(C)N)c1` (stereo not drawn), in data set [2], the KDNB is 0.96. Further, the Kb in data set [3] is 1200 nM.

For `COc1cc(CC(C)N)c(SC)cc1OC` (stereo not drawn), in data set [1] (read-out: logP), the logP turned out to be 1.71. In the data set filed under Oryctolagus cuniculus, this compound yielded a Relative activity of 1.7.

Turning to `COc1ccc(OC)c(CC(C)N)c1` (stereo not drawn), the logP is 1.72 in data set [1] and 1.88 in data set [1] (read-out: logP).

As to `COc1cccc(OC)c1CC(C)N` (stereo not drawn), the KDNB in data set [2] came out at 1.49. In addition, in data set [3], the Kb is 8130 nM.

As for `CC(N)Cc1ccc2c(c1)OCO2` (stereo not drawn) [TENAMFETAMINE], the logP in data set [1] (read-out: logP) stood at 1.63. The compound also came in with a KDNB in data set [2] of 0.68.

Regarding `COc1cc(SC)c(OC)cc1CC(C)N` (stereo not drawn), in data set [1] (read-out: logP), the logP is 2.17. Further, the Relative activity in the data set filed under Homo sapiens stood at 50; in the data set filed under Oryctolagus cuniculus it was 53.9.

As for `COc1cc(Br)c(CC(C)N)cc1OC` (stereo not drawn), the logP in data set [1] (read-out: logP) came out at 1.96. For the same compound, in the data set filed under Oryctolagus cuniculus, the Relative activity is 3.4. The Kb in data set [3] is 1780 nM.

As for `COc1cc(CC(C)N)c(OC)cc1Br` (stereo not drawn) [BROLAMFETAMINE], the results for the lipophilicity (logP) in data set [1] and in data set [1] (read-out: logP) were 2.54 and 2.58, respectively.

`COc1cc(C)c(CC(C)N)cc1OC` (stereo not drawn): the logP in data set [1] (read-out: logP) amounted to 1.66. In the data set filed under Oryctolagus cuniculus, this compound returned a Relative activity of 0.5. Moreover, the Kb in data set [3] was 1380 nM.

`COc1cc(OC)c(CC(C)N)cc1Br` (stereo not drawn): in data set [1] (read-out: logP), the lipophilicity (logP) was 2.61. For the same compound, the Relative activity is 4 in the data set listed under Homo sapiens and 2.3 in the data set listed under Oryctolagus cuniculus.

As to `COc1cc(OC)c(CC(C)N)c(OC)c1` (stereo not drawn), the logP in data set [1] (read-out: logP) amounted to 1.57. In addition, the Relative activity in the data set filed under Homo sapiens is recorded as 10; in the data set listed under Oryctolagus cuniculus, 3.1. The KDNB in data set [2] is 2.09. Moreover, in data set [3], the Kb was 525 nM.

On to `COc1ccc(CC(C)N)c(OC)c1OC` (stereo not drawn), for which the logP in data set [1] (read-out: logP) amounted to 1.36. For the same compound, the Relative activity in the data set listed under Homo sapiens is reported as less than 2; in the data set listed under Oryctolagus cuniculus it was <<0.3. The same compound had a KDNB in data set [2] of 1.7. For the same compound, the Kb in data set [3] was 8510 nM.

The values are drawn from ChEMBL document CHEMBL1121754 (J Med Chem, 1981).
